According to article PMC8533149 (Biomolecules, 2021):
Like-named read-outs stand apart in the source and are kept apart here.

Tests used:
[1] = test system: HIV-1 LTR-III G-quadruplex (FAM/TAMRA-labeled LTR-III); assay: FRET melting assay, LTR-III G4; assay type: binding; settings: for LTR-III (average): Table S12, average stabilization; for LTR III stabilization: Figure 7, stabilization group
Method in brief: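 Melting is followed by FAM fluorescence (ex 495/em 520 nm) while heating at 1 °C/min from 30 to 95 °C. Labelled ODN at 0.5 μM, pre-annealed in 10 mM Li cacodylate, 100 mM KCl, pH 7.4, mixed with ligand at 50:1 (25 μM), or 20:1 and 2:1 for titration. ΔTm is relative to the 0.25% DMSO buffer control.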

[2] = test system: dsDNA (double stranded control sequence); assay: FRET melting assay, duplex control; assay type: binding; settings: 50:1
Description: (§1) To evaluate stabilizing properties of the ligands in a complex with oligodeoxyribonucleotides (ODNs) melting with fluorescence registration was used. ODN (0.5 μM) (Table 1), labeled with 6-carboxyfluorescein (FAM) and 6-carboxytetramethylrhodamine (TAMRA) at the 5′- and 3′-end, respectively, were folded in lithium cacodylate buffer (10 mM, pH 7.4) with 100 mM KCl by heating at 95 °C for 5 min and gradually cooling to r.t. GFP chromophore analogs (5 mM solution in DMSO) were diluted with the same buffer to the final concentration of 25 μM and mixed with an equal volume of 0.5 μM ODN solution resulting in a molar ratio of 50:1 (total volume was 50 μL). For the titration experiments molar ratios of 20:1 and 2:1 were used. Samples were analyzed using DTprime qPCR system (DNA-Technology LLC, Moscow, Russia). Fluorescence was registered by detection of FAM emission at 520 nm upon excitation at 495 nm in the temperature range of 30–95 °C with 1 °C/min gradient. Tm was determined using the instrument software and ΔTm was calculated relative to ODN Tm in a buffer solution containing 0.25% (v/v) DMSO. The primary and secondary screening were carried out in singlicate and triplicate, respectively.
(§2) Initially we screened an in-house library of 440 synthetic GFP chromophore analogues for interaction with HIV-1 LTR-III sequence, which modulates HIV-1 promoter activity, using high-throughput screening (HTS) FRET melting assay (Table S1). […] We selected 11 compounds (Figure 2A), displaying stabilization in the range of 2.4–7.8 °C, and evaluated their ability to stabilize other G4-forming sequences, including human telomeric sequence Telo (one of the most common G4 structures in the human genome, having two conformations, Hybrid-1 and Hybrid-2 [36]) and model G4 […] (the G-rich Pu39 region of the P1 promoter of the oncogene BCL-2, an apoptosis regulator [37] with polymorphic conformational structure), as well as double stranded oligonucleotide (duplex) control sequence (Figure 2B, Table S2).

Cytotoxicity test = assay type: cell-based; settings: human, MT4 cells (human T cell leukemia), Figure 7
Description: (§3) Green monkey kidney (Vero, Beach, FL, USA) cell line was maintained in 2 × Eagle MEM (“Chumakov FSC R&D IBP RAS”, Russia) with 5% FBS with L-glutamine, penicillin and streptomycin. […] HIV-1 strain NL4-3 was obtained via cell transfection with pNL4-3 3 (ARP2006, NIBSC, Potters Bar, UK).
(§4) MT4 cell suspensions were added to the wells with compound dilutions and DMSO control (approx. 2 × 10^4 cells per well). […] All experimental procedures were performed in two replicates and were repeated two to four times. Mean and SD were calculated with OriginPro 8 (OriginLab, St. Louis, MO, USA).

MT4 cells = assay: Cytotoxicity test; assay type: cell-based; settings: Table S12, nine days
Description: as §3, §4

[3] = test system: Pu39 G4 (G-rich region of the P1 promoter of BCL-2); assay: FRET melting assay, Pu39; assay type: binding, human; settings: 50:1
Description: as §1, §2

[4] = test system: human telomeric sequence Telo G4; assay: FRET melting assay, Telo; assay type: binding; settings: 50:1
Description: as §1, §2

[5] = test system: HIV-1 strain NL4-3 in MT4 cells; assay: Cytopathic effect inhibition test; assay type: cell-based; settings: HIV-1 NL4-3, MT4 cells
Description: Human T cell leukemia (MT4) cell line was maintained in RPMI-1640 (“Chumakov FSC R&D IBP RAS”, Moscow, Russia) with 10% of fetal bovine serum (FBS, Invitrogen, Waltham, MA, USA), L-glutamine and gentamicin. Green monkey kidney (Vero, Beach, FL, USA) cell line was maintained in 2 × Eagle MEM (“Chumakov FSC R&D IBP RAS”, Russia) with 5% FBS with L-glutamine, penicillin and streptomycin. Cell cultures were incubated in the present of 5% CO2 at 37 °C. HIV-1 strain NL4-3 was obtained via cell transfection with pNL4-3 3 (ARP2006, NIBSC, Potters Bar, UK).
Eight two-fold dilutions of stock solutions of the compounds in two replicates were prepared in RPMI-1640 (“Chumakov FSC R&D IBP RAS”, Russia). Compound dilutions were mixed with equal volumes of the virus suspension containing 100 CCID50 (50% tissue culture infectious dose). Control cells were treated with the same sequential concentrations of DMSO as in compound dilutions. Then, the MT4 cell suspension (approx. 2 × 10^4 cells per well) in RPMI-1640 containing 10% FBS (Invitrogen, South America) was added to experimental mixtures. A final concentration series started from 25 μM. Each experiment contained virus dose titration in the inoculate to assure the acceptable dose-range. After a nine-day incubation (5% CO2, at 37 °C), cytopathic effect (CPE) was visually accessed via microscope. EC50 values were calculated according to the Karber method. All experimental procedures were performed in two replicates and were repeated two to four times. Mean and SD were calculated with OriginPro 8 (OriginLab, St. Louis, MO, USA).

[6] = Table S1 primary screening, ligand:ODN 50:1, singlicate
[7] = Table S2, primary screening lead compounds
[8] = LTR-III G4/ligand molar ratio 1:20
[9] = LTR-III G4/ligand molar ratio 1:50
[10] = Table S3 primary screening of newly synthesized analogs, 50:1
[11] = Table S5, newly synthesized compounds

| Structure (SMILES) | LTR-III ΔTm [1, 6] [°C] | LTR-III (average) [1] | ΔTm Duplex [2, 7] [°C] | CC50 at 9 days (Cytotoxicity test) [µM] | СС50 (MT4) (MT4 cells) [µM] | ΔTm Pu39 [3, 7] [°C] | ΔTm Telo [4, 7] [°C] | LTR III stabilization [1] [°C] | EC50 ([5]; Human immunodeficiency virus 1, NL43, 216 h, Table S12, CPE, nine-day incubation, read-out: EC50) [µM] | EC50 ([5]; Human immunodeficiency virus 1, NL43, Figure 7, read-out: Antiviral activity EC50 (HIV)) [µM] | ΔTm, titration ([1]; LTR-III G4/ligand molar ratio 1:2) [°C] | ΔTm, titration [1, 8] [°C] | ΔTm, titration [1, 9] [°C] | LTR-III ΔTm [1, 10] [°C] | ΔTm Duplex [2, 11] [°C] | ΔTm Pu39 [3, 11] [°C] | ΔTm Telo [4, 11] [°C] |
| --- | --- | --- | --- | --- | --- | --- | --- | --- | --- | --- | --- | --- | --- | --- | --- | --- | --- |
| COc1ccc(/C=C2\N=C(CC(C)C)C(=O)N(O)C2=O)cc1 [M 813] | 2.9 | 1,65 °C | 0±0.04 | 0.5 ± 0.2 | 0.46 ± 0.16 | -1.5±1 | -0.6±0.9 | – | – | – | – | – | – | – | – | – | – |
| CN1C(=O)/C(=C/c2cc[n+](C)cc2)N=C1c1ccccc1 [M 903.2] | 2.8 | 2,3 °C | 0.1±0.07 | > 25 | > 25 | -1±0.5 | 0.4±0.1 | – | – | – | – | – | – | – | – | – | – |
| O=C1/C(=C/c2cccs2)N=C(/C=C/c2ccc(O)cc2)N1CCc1ccc(O)cc1 [MID 161] | -2.6 | -1,7 °C | – | 17 ± 5 | 17.3 ± 5.7 | – | – | < 1 | 7.7 ± 2.2 | 8 ± 2 | – | – | – | – | – | – | – |
| COc1cc(/C=C2N=C(/C=C/c3cc(OC)c(O)c(OC)c3)N(C)C\2=O)cc(OC)c1O [N1193] | – | 14 °C | – | 2 ± 1 | 2.3 ± 1.1 | – | – | > 3 | – | – | 2.4±0.6 | 9.1±0.6 | 13.1±0.2 | 14 | 0.6±0.1 | 3.8±0.04 | 9.5±0.1 |
| COc1cc(/C=C2N=C(/C=C/c3ccnc4ccccc34)N(C)C\2=O)cc(OC)c1O [N1196] | – | – | – | > 25 | > 25 | – | – | > 3 | – | – | – | 7.9±0.4 | 11.3±0.3 | 11.7 | 0.5±0.1 | 7.2±0.4 | 8.7±0.2 |
| COc1c(O)ccc(/C=C2N=C(/C=C/c3ccnc4ccccc34)N(C)C\2=O)c1OC [N1197] | – | 11,3 °C | – | 1.7 ± 0.8 | 1.66 ± 0.79 | – | – | > 3 | – | – | – | 8.5±0.3 | 11.4±0.2 | 11.3 | -0.4±0.2 | 7±0.7 | 4.6±0.2 |
| CCNc1ccc(/C=C2\N=C(C)N(C)C2=O)cc1 [N 683.1] | 5 | 3,1 °C | 0±0.04 | > 25 | > 25 | 1.4±0.6 | -0.1±0.04 | > 3 | – | – | – | – | – | – | – | – | – |
| COc1cc(/C=C2N=C(/C=C/c3ccncc3)N(C)C\2=O)cc(OC)c1O [N 908] | 2.4 | – | 0±0.04 | – | – | -0.7±0.2 | 0.1±0.1 | – | – | – | – | – | – | – | – | – | – |
